Test results published in ChEMBL document CHEMBL1148790, “Synthesis, molecular modeling studies, and preliminary pharmacological characterization of all possible 2-(2'-sulfonocyclopropyl)glycine stereoisomers as conformationally constrained L-homocysteic acid analogs” (J Med Chem, 2007).
pKi: −log10 of the molar value.

Experiments:
[1] = target: Metabotropic glutamate receptor 4 (Homo sapiens, UniProt Q14833); test: Displacement of [3H]LAP4 from mGluR4 receptor expressed in BHK cells; type: cell-based
[2] = target: Metabotropic glutamate receptor 1 (Homo sapiens, UniProt Q13255); test: Displacement of [3H]quisqualate from mGluR1 receptor expressed in BHK cells; type: cell-based
[3] = target: Metabotropic glutamate receptor 2 (Homo sapiens, UniProt Q14416); test: Displacement of [3H]LY341495 from mGluR2 receptor expressed in BHK cells; type: cell-based
[4] = target: Metabotropic glutamate receptor 5 (Homo sapiens, UniProt P41594); test: Binding affinity to mGluR5 receptor expressed in BHK cells; type: cell-based
[5] = Displacement of [3H]AMPA from rat AMPA receptor in rat brain membranes
Glutamate NMDA receptor = test: Displacement of [3H]CGP-39653 from rat NMDA receptor in rat brain membranes
[6] = Displacement of [3H]kainic acid from rat KA receptor in rat brain membranes

Sequence of Metabotropic glutamate receptor 5 (P41594 whole entry): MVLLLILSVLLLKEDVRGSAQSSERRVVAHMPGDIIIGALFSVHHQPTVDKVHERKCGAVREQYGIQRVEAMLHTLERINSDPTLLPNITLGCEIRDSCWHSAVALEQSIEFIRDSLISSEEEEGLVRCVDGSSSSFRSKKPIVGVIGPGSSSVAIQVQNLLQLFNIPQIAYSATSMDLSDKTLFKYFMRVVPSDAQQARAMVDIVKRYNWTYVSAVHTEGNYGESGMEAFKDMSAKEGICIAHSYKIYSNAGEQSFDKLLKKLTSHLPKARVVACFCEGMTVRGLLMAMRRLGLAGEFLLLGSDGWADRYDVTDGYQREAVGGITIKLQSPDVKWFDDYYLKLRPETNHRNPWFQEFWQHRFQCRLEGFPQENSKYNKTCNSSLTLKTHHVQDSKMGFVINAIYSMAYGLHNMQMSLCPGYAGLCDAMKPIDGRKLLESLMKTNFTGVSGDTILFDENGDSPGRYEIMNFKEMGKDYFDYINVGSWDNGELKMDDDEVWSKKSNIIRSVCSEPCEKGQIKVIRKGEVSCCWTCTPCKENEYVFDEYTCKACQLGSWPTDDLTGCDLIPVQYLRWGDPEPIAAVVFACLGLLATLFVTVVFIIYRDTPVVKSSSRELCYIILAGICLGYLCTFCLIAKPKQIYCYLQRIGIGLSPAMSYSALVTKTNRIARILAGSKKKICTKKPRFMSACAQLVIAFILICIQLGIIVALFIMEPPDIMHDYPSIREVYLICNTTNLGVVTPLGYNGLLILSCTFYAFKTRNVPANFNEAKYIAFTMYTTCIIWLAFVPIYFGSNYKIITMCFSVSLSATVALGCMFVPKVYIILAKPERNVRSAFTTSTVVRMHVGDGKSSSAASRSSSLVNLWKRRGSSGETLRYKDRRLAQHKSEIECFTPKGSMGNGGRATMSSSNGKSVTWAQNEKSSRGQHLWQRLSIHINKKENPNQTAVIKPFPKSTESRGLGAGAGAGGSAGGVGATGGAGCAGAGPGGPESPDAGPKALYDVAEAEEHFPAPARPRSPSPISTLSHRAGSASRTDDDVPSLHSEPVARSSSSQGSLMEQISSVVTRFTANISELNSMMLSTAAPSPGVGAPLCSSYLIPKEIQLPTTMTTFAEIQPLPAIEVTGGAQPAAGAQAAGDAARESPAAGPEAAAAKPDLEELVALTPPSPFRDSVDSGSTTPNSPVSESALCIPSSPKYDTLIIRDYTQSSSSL
Sequence of Metabotropic glutamate receptor 4 (Q14833 whole entry): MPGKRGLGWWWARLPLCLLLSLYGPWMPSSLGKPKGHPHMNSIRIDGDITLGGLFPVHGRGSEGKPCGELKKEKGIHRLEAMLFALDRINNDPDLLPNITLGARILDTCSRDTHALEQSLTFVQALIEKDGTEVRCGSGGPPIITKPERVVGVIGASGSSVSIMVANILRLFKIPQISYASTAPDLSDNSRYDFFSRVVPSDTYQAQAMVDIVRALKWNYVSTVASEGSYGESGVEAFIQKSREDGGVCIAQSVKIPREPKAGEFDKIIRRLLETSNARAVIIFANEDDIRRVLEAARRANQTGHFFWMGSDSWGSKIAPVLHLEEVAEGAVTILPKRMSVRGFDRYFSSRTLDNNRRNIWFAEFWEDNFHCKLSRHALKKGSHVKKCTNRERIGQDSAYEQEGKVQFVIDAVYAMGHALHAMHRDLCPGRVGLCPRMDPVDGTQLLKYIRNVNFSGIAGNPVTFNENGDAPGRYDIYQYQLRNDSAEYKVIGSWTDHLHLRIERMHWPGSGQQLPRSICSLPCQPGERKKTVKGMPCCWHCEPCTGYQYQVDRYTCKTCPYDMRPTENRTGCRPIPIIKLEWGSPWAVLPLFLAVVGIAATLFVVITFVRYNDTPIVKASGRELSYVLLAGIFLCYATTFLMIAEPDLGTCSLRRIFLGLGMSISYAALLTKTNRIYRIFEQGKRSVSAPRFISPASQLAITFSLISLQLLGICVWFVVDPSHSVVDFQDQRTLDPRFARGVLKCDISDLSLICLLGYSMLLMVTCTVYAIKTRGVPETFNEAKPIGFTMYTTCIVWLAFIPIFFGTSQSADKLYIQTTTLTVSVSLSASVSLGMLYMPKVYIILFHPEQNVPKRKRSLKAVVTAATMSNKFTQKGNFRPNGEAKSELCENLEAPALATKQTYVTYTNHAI
Sequence of Metabotropic glutamate receptor 2 (Q14416 whole entry): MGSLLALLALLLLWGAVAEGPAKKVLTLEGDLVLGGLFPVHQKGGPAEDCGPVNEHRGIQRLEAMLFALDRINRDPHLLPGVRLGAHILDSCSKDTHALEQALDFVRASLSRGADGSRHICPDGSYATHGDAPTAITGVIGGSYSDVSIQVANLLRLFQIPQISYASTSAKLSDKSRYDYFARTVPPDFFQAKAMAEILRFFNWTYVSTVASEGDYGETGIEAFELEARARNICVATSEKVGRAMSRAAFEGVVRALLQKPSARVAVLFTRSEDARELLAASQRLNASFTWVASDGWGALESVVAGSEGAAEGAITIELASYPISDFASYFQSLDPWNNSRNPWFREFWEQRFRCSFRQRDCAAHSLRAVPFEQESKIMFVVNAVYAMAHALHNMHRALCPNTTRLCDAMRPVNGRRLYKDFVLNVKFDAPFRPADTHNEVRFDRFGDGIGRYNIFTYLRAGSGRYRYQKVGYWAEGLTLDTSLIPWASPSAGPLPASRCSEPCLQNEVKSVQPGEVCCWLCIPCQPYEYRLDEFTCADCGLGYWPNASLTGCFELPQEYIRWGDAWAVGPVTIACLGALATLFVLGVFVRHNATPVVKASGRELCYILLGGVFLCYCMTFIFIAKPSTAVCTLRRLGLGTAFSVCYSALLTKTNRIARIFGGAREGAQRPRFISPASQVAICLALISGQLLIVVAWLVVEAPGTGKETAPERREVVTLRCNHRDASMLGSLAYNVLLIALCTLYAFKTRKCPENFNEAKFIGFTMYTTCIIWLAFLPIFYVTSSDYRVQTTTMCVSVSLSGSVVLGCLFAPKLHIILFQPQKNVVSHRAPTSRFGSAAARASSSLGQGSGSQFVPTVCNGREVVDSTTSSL
Sequence of Metabotropic glutamate receptor 1 (Q13255 whole entry): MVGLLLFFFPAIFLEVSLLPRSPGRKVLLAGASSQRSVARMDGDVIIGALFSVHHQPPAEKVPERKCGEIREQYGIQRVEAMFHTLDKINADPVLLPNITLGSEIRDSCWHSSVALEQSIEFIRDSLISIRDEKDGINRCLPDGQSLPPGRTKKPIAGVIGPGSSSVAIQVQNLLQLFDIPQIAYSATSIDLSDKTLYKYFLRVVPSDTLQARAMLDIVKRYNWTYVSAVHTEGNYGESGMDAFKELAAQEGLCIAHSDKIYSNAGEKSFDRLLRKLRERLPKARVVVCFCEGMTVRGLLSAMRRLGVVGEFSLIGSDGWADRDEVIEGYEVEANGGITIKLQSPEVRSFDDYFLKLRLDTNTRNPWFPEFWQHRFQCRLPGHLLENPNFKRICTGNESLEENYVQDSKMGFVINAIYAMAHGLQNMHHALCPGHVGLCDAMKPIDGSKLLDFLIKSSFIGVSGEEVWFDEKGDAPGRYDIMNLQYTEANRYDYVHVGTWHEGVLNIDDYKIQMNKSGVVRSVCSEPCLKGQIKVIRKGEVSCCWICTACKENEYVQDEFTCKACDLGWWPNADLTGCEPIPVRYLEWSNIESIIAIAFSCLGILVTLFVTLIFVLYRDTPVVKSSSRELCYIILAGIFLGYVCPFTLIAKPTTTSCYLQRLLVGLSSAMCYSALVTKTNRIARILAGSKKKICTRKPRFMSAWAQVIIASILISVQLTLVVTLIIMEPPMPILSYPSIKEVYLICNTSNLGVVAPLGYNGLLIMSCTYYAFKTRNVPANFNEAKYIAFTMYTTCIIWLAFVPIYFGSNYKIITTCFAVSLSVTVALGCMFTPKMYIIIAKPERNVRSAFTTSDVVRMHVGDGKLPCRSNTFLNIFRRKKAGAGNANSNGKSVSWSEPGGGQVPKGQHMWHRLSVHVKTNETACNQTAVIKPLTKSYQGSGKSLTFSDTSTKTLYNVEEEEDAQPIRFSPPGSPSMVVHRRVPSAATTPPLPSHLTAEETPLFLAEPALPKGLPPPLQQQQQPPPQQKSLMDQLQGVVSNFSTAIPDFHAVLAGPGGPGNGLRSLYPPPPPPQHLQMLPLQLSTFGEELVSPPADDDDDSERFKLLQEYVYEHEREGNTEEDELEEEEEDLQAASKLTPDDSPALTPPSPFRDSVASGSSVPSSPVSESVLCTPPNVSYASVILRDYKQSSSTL

SMILES | pKi [1] | pKi [2] | pKi [3] | pKi [4] | pKi [5] | pKi (Glutamate NMDA receptor) | pKi [6]
N[C@@H](C(=O)O)[C@@H]1C[C@H]1S(=O)(=O)O | < 3.52 | 3.60 | < 3.52 | 4.17 | 4.14 | 3.82 | 4.15
N[C@@H](C(=O)O)[C@@H]1C[C@@H]1S(=O)(=O)O | < 3.52 | < 3.52 | < 3.52 | < 3.52 | < 3.52 | < 3.52 | 4.46
N[C@@H](C(=O)O)[C@H]1C[C@H]1S(=O)(=O)O | < 3.52 | < 3.52 | < 3.52 | 4.26 | 4.14 | 4.21 | 4.19
N[C@@H](CCS(=O)(=O)O)C(=O)O | 4.28 | 4.06 | < 3.52 | 4.27 | 5.62 | 5.57 | 5.00
N[C@H](C(=O)O)[C@H]1C[C@@H]1S(=O)(=O)O | < 3.52 | 4.47 | 3.63 | 4.31 | < 3.52 | < 3.52 | < 3.52
N[C@H](C(=O)O)[C@@H]1C[C@@H]1C(=O)O |  |  |  |  |  | 8.05 | 
N[C@H](C(=O)O)[C@@H]1C[C@H]1S(=O)(=O)O | < 3.52 | 4.11 | < 3.52 | 4.09 | < 3.52 | < 3.52 | 4.47
N[C@@H](C(=O)O)[C@H]1C[C@@H]1S(=O)(=O)O | < 3.52 | < 3.52 | < 3.52 | < 3.52 | 4.02 | 4.66 | 4.47
N[C@H](C(=O)O)[C@H]1C[C@H]1S(=O)(=O)O | < 3.52 | < 3.52 | < 3.52 | < 3.52 | < 3.52 | < 3.52 | < 3.52
N[C@H](C(=O)O)[C@@H]1C[C@@H]1S(=O)(=O)O | < 3.52 | < 3.52 | < 3.52 | < 3.52 | 7.00 | 4.72 | 5.48
